Measurements taken from patent US11724995B2, “Decalin derivatives, a process for the preparation and pharmaceutical composition thereof” (Council of Scientific & Industrial Research, priority 2018, dated 2023).

test system: Sickle cell red blood cells (SS RBCs); test: Flow adhesion assay: sickle cell adhesion inhibition, RBCs perfused over TNF-α activated HUVEC monolayer; assay type: cell-based; settings: Homo sapiens; Table 1; SS RBCs treated with test compound at 100 μM, hypoxic condition 2 h; adhesion to TNF-α activated HUVEC monolayer under pulsatile flow; read-out: Inhibition (percentage of inhibition of cell adhesion)
Protocol: In still yet another embodiment, the present disclosure provides Sickle cell adhesion inhibition using Sickle cell red blood cells (SS RBCs). Flow adhesion assay are performed with commercial microfluidic-well plate and microfluidic flow adhesion system. Microfluidic channels are coated by perfusion (1 dyne/cm^2, 5 min) and incubated (37° C., 1 h) with 100 ng/ml Fibronectin. Channels are then perfused with complete media to remove unbound Fibronectin. Then a uniform monolayer of HUVEC cells is formed by profusing micro channels with the cell suspension at a pressure of 3 dyne/cm^2 for 5 sec and kept for 12 hours incubation to form monolayer. The HUVEC monolayer is activated 25 ng/ml of TNF-α and incubated (37° C., 4 h). Meanwhile Sickle cell red blood cell (SS RBCs) are treated with test compound at 100 μM concentration and incubated in hypoxic condition ([…], 5% CO2, 2 h). Flow condition for adhesion assay was pulsatile (1.67 Hz) flow (0.3 dyne/cm^2). For adhesion inhibition assay SS RBCs are diluted (2:50) in PBS. SS RBCs are perfused over HUVEC monolayer and incubated for 1 h. Unbound cells in micro channels are removed by perfusing complete media. Adherent cells are enumerated. Table 1 depicts percentage of inhibition when the compounds are tested at 100 μM concentration.
Flow adhesion assay were performed with commercial microfluidic-well plate and microfluidic flow adhesion system, Bio flux 200. Microfluidic channels were coated by perfusion (1 dyne/cm^2, 5 min) and incubated (37° C., 1 h) with 100 ng/ml Fibronectin. Channels were then perfused with complete media to remove unbound Fibronectin. Then a uniform monolayer of HUVEC cells was formed by profusing micro channels with the cell suspension at a pressure of 3 dyne/cm^2 for 5 sec and kept for 12 hours incubation to form monolayer. The HUVEC monolayer was activated 25 ng/ml of TNF-α and incubated (37° C., 4 h). Meanwhile RBCs were treated with test compound at 100 μM concentration and incubated in hypoxic condition ([…], 5% CO2, 2 h). Flow condition for adhesion assay was pulsatile (1.67 Hz) flow (0.3 dyne/cm^2). For adhesion inhibition assay RBCs were diluted (2:50) in PBS. RBCs were perfused over HUVEC monolayer and incubated for 1 h. Unbound cells in micro channels were removed by perfusing complete media. Adherent cells were enumerated.

Point of comparison: `C[C@@H]1CC=CC2=CC(=O)CC[C@]21C` [Compound 24, (4aS,5R)-4a,5-dimethyl-4,4a,5,6-tetrahydronaphthalen-2(3H)-one], inhibition at 100 µM 67%. Against it:
- C[C@@H]1CC(=O)C=C2C=CCC[C@]21C [Compound 21, (4R,4aS)-4,4a-dimethyl-4,4a,5,6-tetrahydronaphthalen-2(3H)-one] — higher, 78%
- C[C@@H]1CC(=O)C=C2C[C@@H](O)[C@@H](O)C[C@]21C [Compound 28, (4R,4aS)-6,7-dihydroxy-4,4a-dimethyl-4,4a,5,6,7,8-hexahydronaphthalen-2(3H)-one] — lower, 56%
- C[C@@H]1CC(=O)C=C2C=CC(=O)C[C@]21C [Compound 29, (8R,8aS)-8,8a-dimethyl-1,7,8,8a-tetrahydronaphthalene-2,6-dione] — higher, 70%
- C[C@@H]1C(=O)C=CC2=CC(=O)CC[C@]21C [Compound 30, (1S,8aS)-1,8a-dimethyl-1,7,8,8a-tetrahydronaphthalene-2,6-dione] — higher, 72%
